According to patent US20060281807A1, “Quassinoid compositions for the treatment of cancer and other proliferative diseases” (Tapestry Pharmaceuticals, Inc., priority 2005, published 2006):
Values after ≈ are worked out from the molar mass of the structure shown. Values joined by “and” are separate entries in the source; they are usually repeats but may differ in a detail not shown here. Equal values may be shown once. Read-outs that look alike come from different tables or passages of the source.

How the values were obtained:
HCT-116 cells [1] = assay: Clonogenic assay, HCT-116; assay type: cell-based, human; conditions: colonies at 7 days
Method: A clonogenic assay was performed using HCT-116 cells. Specifically, HCT-116 cells were seeded at 200 to 20,000 cells in 60 mm dishes. […] At either 2 hours or 24 hours following drug administration, the drug-containing media was removed, and fresh media without drug was added. In addition, one group of cells was subjected to continuous drug exposure for the entire incubation period. The dishes were incubated for 7 days (at 37° C. and 5% CO2), media was removed, and the colonies were stained with methylene blue. Colonies containing 50 cells or more were counted. The results were normalized to an untreated control. Plating efficiency for the untreated cells was about 90%. Repeat experiments also were carried out to define the cell survival range between 1 (100%) and 10^−3 (0.1%) survival. A survival rate of 10^−1 was chosen as the minimal level that would be required in vivo to achieve therapeutic efficacy against HCT-116 cells in tumor-bearing mice. The clonogenic dose response to 15-O-(3′-hydroxy-3′-isopropyl-4′-methylpentanoyl)bruceolide is illustrated in FIG. 4. The clonogenic dose response to 15-(3-isopropyl-4-methyl-2-pentenoyl)-bruceolide is illustrated in FIG. 5.

[2] = tested on: CCRF-CEM (human leukemia); assay: Disk diffusion assay, zone of inhibition, CCRF-CEM; assay type: cell-based; conditions: 1 mg/mL
Method: (§1) A disk diffusion assay was performed to define the differential cell killing ability of 15-O-(3′-hydroxy-3′-isopropyl-4′-methylpentanoyl)bruceolide. Seven cell types were assayed: L1210 (ATCC CCL-219) (murine leukemia), CCRF-CEM (ATCC CCL-119) (human leukemia), Colon 38 (murine colon adenocarcinoma), HCT116 (ATCC CCL-247) (human colorectal carcinoma), H125 (human lung carcinoma). The murine and human granulocyte/macrophage progenitor cell line (CFU-GM), served as controls.
(§2) Colon 38 cells (about 1 gram) were cut into small fragments in 15 mL of Hank's Balanced Salt Solution (HBSS) over a 100-mesh sieve and gently forced through by the scissors with HBSS constantly perfusing the sieve. The resulting material was then drawn into and out of a 5 mL syringe without a needle to further disperse the cell clumps. The cell solution was diluted and plated in 0.3% agarose in DMEM plus 10% heat-inactivated Bovine Calf Serum (BCS). For plating of all of the cell types (except controls), the 60 mm plates were first prepared with a hard agar bottom layer (0.6% agar in RPMI-1640 plus 15% BCS).
(§3) A 15 μl sample of each compound was dropped onto a 6.5 mm disk (Baxter filter disks). The disks were allowed to dry overnight and then placed close to the edge of a petri dish. Depending upon the cell type, the dishes were incubated for 7 to 10 days, and examined by an inverted stereo-microscope (10×) for measurement of the zone of inhibition. The zone of inhibition was measured from the edge of the filter disk to the beginning of normal-sized colony formation. The diameter of the filter disk, 6.5 mm, was arbitrarily taken as a zone of 200 units. Compounds that were selective for killing solid tumors, as compared to leukemia or normal cells (“solid tumor selective”) were defined as those compounds which produced a difference in zones between solid tumor cells and either normal or leukemia cells of at least 250 units. The results of this analysis are set forth in Table 4, which illustrates the relative diameters of the zones of inhibition by various drugs on the growth of the respective cell types at various drug dilutions.

[3] = tested on: H125 (human lung carcinoma); assay: Disk diffusion assay, zone of inhibition, H125; assay type: cell-based; conditions: 1 mg/mL
Method: as §1, §2
(§4) HCT116 and H125 cells were maintained in cell culture, and were removed from culture by a trypsin-collagenase-DNAase cocktail. The plating efficiencies of each cell type was sufficiently high that 30,000 cells in 3 mL produced the desired number of colonies (i.e., over 10,000 per plate) in 60 mm plates. This soft agar top layer (0.3% with the serum and media as above) plus the titrated tumor cells were poured into the plates and allowed to solidify.
as §3

HCT-116 cells [4] = assay: HCT-116 cytotoxicity, viable cell count by trypan blue; assay type: cell-based, human
murine CFU-GM = assay: Disk diffusion assay, zone of inhibition, murine CFU-GM; assay type: cell-based; conditions: 1 mg/mL
Method: as §1
(§5) For CFU-GM cells, the femoral marrow of BD2F1 mice was flushed with MEM alpha (2 mL per femur). The cells were passed through an 18 gauge needle twice and the monodispersed suspension was counted. A total of 1.5×10^6 cells were plated in 3 mL of 0.3% agar with the addition of 10% L cell conditioned media, which provided colony stimulating factor, in MEM-alpha plus 10% BCS. For human CFU-GM, the cells were obtained from Poietic Technologies, Inc. (Gaithersburg, Md.) and washed twice with PBS before being titered and added to the agar mixture. The same cell number, culture conditions, and conditioning factors used with respect to the murine CFU-GM cells were used with the human cells, except that the cultures were assessed after 10 days of incubation.
as §3

[5] = tested on: Colon 38 (murine colon adenocarcinoma); assay: Disk diffusion assay, zone of inhibition, Colon 38; zone differentials, potency and product; assay type: cell-based; parameters: key to C38ΔL1210 / C38ΔCFU: difference of zone of inhibition values, in zone units; conditions: for zone of inhibition, Colon 38: 1 mg/mL; for Sum: C38ΔL1210 plus C38ΔCFU; for C38ΔL1210 / C38ΔCFU: difference between zone of inhibition values; for C38ΔL1210: Colon38 vs L1210 leukemia; for C38ΔCFU: Colon38 vs normal cell CFU-GM; for Product: potency multiplied by zone differentials
Method in brief: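 Dissociated Colon 38 cells were plated in soft agar over a hard agar layer; 15 µl of compound dilution dried on a 6.5 mm disk was placed on the plate, and incubation ran 7–10 days. Inhibition zone was measured from disk edge to normal colonies, with the disk diameter = 200 units. Potency = dilution giving 500 units; the product multiplies it by the differentials against L1210 or CFU-GM.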

[6] = tested on: HCT116 (human colorectal carcinoma); assay: Disk diffusion assay, zone of inhibition, HCT116; assay type: cell-based; conditions: 1 mg/mL
Method: as §1, §2, §4, §3

human CFU-GM = assay type: cell-based; conditions: 1 mg/mL
Method: as §1, §5, §3

[7] = Maximum tolerated dose in mice; conditions: first stage, one mouse per dose
Method: Formulations containing 15-O-(3′-hydroxy-3′-isopropyl-4′-methylpentanoyl)bruceolide, 15-(3-isopropyl-4-methyl-2-pentenoyl)-bruceolide, and, for comparative purposes, bruceantin, or peninsularinone were prepared by solubilizing each compound in up to 100 mg/mL of ethanol. These solutions were diluted 1:1 with a stabilizer (Cremophor/propylene glycol). The solutions were then diluted in saline (1:10 minimum).
The maximum tolerated dose (MTD) was determined by a two-stage experiment. In the first stage, between 1 and 10 mg/mL of the formulation was prepared as described above. Next, 0.25 mL of the formulation was injected intravenously into one 20 gram mouse (0.75 mg/mouse). If the animal died within 30 days of injection, a series of subsequent 2-fold dilutions were administered to individual mice until an MTD was defined. […] The second stage of the study involved increasing the number of mice per dose to four, and retesting four dilutions that bracket the MTD from the individual mouse study. The four dilutions were the MTD, a dosage twice the MTD, a dosage ½ the MTD, and a dosage ¼ the MTD.

L1210 (murine leukemia) = assay: Disk diffusion assay, zone of inhibition, L1210; assay type: cell-based; conditions: 1 mg/mL
Method: as §1, §2, §3

[8] = no dilution, 15 μl on disk, 6.5 mm = 200 units

COC(=O)[C@@]12OC[C@]34[C@H]([C@@H](O)[C@@H]1O)[C@@]1(C)CC(=O)C(O)=C(C)[C@@H]1C[C@H]3OC(=O)[C@H](OC(=O)/C=C(\C)C(C)C)[C@@H]24 [Bruceantin, bruceantin]
Concentration Required for 10^−1 Survival Fraction (HCT-116 cells [1]; HCT-116, 2 Hour Exposure): >10 μg/mL
Concentration Required for 10^−1 Survival Fraction (HCT-116 cells [1]; HCT-116, 24 Hour Exposure): >10 μg/mL
Concentration Required for 10^−1 Survival Fraction (HCT-116 cells [1]; HCT-116, Continuous Exposure): 2 × 10^−3 μg/mL
zone of inhibition, CEM ([2]; dilution 1/100): 450 units
zone of inhibition, H-125 M ([3]; dilution 1/10): >1000 units
zone of inhibition, H-125 M ([3]; dilution 1/100): 600 units
zone of inhibition, H-125 M ([3]; dilution 1/1000): 100 units
zone of inhibition, H-125 M [3, 8]: >1000 units
IC90/IC50 (HCT-116 cells [4]; HCT-116): 6,700
IC50 (HCT-116 cells [4]; Homo sapiens, 72 h, HCT-116, 3 days with compound, viable cells, by interpolation, read-out: IC50): 0.0015 µg/mL (≈ 0.00273 µM)
IC90 (HCT-116 cells [4]; Homo sapiens, 72 h, HCT-116, 3 days with compound, viable cells, by interpolation, read-out: IC90): 10 µg/mL (≈ 18.2 µM)
zone of inhibition, murine CFU-GM (murine CFU-GM; dilution 1/10): 550 units
zone of inhibition, murine CFU-GM (murine CFU-GM; dilution 1/100): 150 units and 200 units
zone of inhibition, murine CFU-GM (murine CFU-GM; dilution 1/1000): 0 units
zone of inhibition, Colon 38 ([5]; dilution 1/10): >1000 units
zone of inhibition, Colon 38 ([5]; dilution 1/100): 600 units and 1000 units
zone of inhibition, Colon 38 ([5]; dilution 1/1000): 600 units and 450 units
zone of inhibition, Colon 38 [5, 8]: >1000 units
Sum [5]: 1050
C38ΔL1210 [5]: 500
C38ΔCFU [5]: 550
Product [5]: 6300
zone of inhibition, H-116 ([6]; dilution 1/10): 1000 units
zone of inhibition, H-116 ([6]; dilution 1/100): 400 units
zone of inhibition, H-116 ([6]; dilution 1/1000): 0 units
zone of inhibition, H-116 [6, 8]: >1000 units
zone of inhibition, human CFU-GM (human CFU-GM; dilution 1/10): >1000 units
zone of inhibition, human CFU-GM (human CFU-GM; dilution 1/100): 650 units
maximum tolerated dose, Dose - 1 Mouse ([7]; intravenous): 0.1 mg/mouse
MTD ([7]; mouse, in vivo, iv, maximum tolerated dose, Dose - 1 Mouse): 5.4 mg/kg
zone of inhibition, L1210 (L1210 (murine leukemia); dilution 1/10): 1000 units
zone of inhibition, L1210 (L1210 (murine leukemia); [8]): >1000 units

CC(=O)O[C@H]1C(=O)[C@@]2(C)[C@H]([C@H](OC(=O)c3ccccc3)[C@]3(O)C[C@H](OC(=O)[C@H](O)[C@@H](NC(=O)c4ccccc4)c4ccccc4)C(C)=C1C3(C)C)[C@]1(OC(C)=O)CO[C@@H]1C[C@@H]2O [Taxol, taxol]
zone of inhibition, CEM ([2]; dilution 1/4): >1000 units
zone of inhibition, CEM ([2]; dilution 1/16): 900 units
zone of inhibition, CEM ([2]; dilution 1/64): 750 units
zone of inhibition, CEM ([2]; dilution 1/256): 550 units
zone of inhibition, CEM [2, 8]: >1000 units
zone of inhibition, H-125 M ([3]; dilution 1/4): 850 units
zone of inhibition, H-125 M ([3]; dilution 1/16): 750 units
zone of inhibition, H-125 M ([3]; dilution 1/64): 650 units
zone of inhibition, H-125 M ([3]; dilution 1/256): 500 units
zone of inhibition, H-125 M [3, 8]: >1000 units
zone of inhibition, murine CFU-GM (murine CFU-GM; dilution 1/4): 600 units
zone of inhibition, murine CFU-GM (murine CFU-GM; dilution 1/16): 550 units
zone of inhibition, murine CFU-GM (murine CFU-GM; dilution 1/64): 400 units
zone of inhibition, murine CFU-GM (murine CFU-GM; dilution 1/256): 150 units
zone of inhibition, murine CFU-GM (murine CFU-GM; [8]): 650 units
zone of inhibition, Colon 38 ([5]; dilution 1/4): 900 units
zone of inhibition, Colon 38 ([5]; dilution 1/16): 750 units
zone of inhibition, Colon 38 ([5]; dilution 1/64): 600 units
zone of inhibition, Colon 38 ([5]; dilution 1/256): 450 units
zone of inhibition, Colon 38 [5, 8]: >1000 units
Sum [5]: 700
C38ΔL1210 [5]: 400
C38ΔCFU [5]: 300
Product [5]: 3500
zone of inhibition, H-116 ([6]; dilution 1/4): 750 units
zone of inhibition, H-116 ([6]; dilution 1/16): 650 units
zone of inhibition, H-116 ([6]; dilution 1/64): 550 units
zone of inhibition, H-116 ([6]; dilution 1/256): 400 units
zone of inhibition, H-116 [6, 8]: 850 units
zone of inhibition, human CFU-GM (human CFU-GM; dilution 1/4): >1000 units
zone of inhibition, human CFU-GM (human CFU-GM; dilution 1/16): 800 units
zone of inhibition, human CFU-GM (human CFU-GM; dilution 1/64): 750 units
zone of inhibition, human CFU-GM (human CFU-GM; dilution 1/256): 550 units
zone of inhibition, human CFU-GM (human CFU-GM; [8]): >1000 units
zone of inhibition, L1210 (L1210 (murine leukemia); dilution 1/4): 550 units
zone of inhibition, L1210 (L1210 (murine leukemia); dilution 1/16): 500 units
zone of inhibition, L1210 (L1210 (murine leukemia); dilution 1/64): 350 units
zone of inhibition, L1210 (L1210 (murine leukemia); dilution 1/256): 50 units
zone of inhibition, L1210 (L1210 (murine leukemia); [8]): 650 units
